Measured values reported in patent publication US20100178249A1, “IMAGING MEDIUM COMPRISING LACTATE AND HYPERPOLARISED 13C-PYRUVATE” (priority 2006, published 2010).

What was measured:
Format in all cases: cell-based
[1] = tested on: EL4 murine lymphoma cells; assay: Cell death by acridine orange and propidium iodide staining / fluorescence microscopy; settings: for morphological features of dying cells: cells treated with both the PARP inhibitor and etoposide, fluorescence microscopy
Protocol: (§1) EL4 murine lymphoma cells (10^8 cells) were treated with 15 μM etoposide (PCH Pharmachemie BV, Harleem), a compound which is known to induce cell death after 16 h exposure. A separate set of cells was treated for 16 hours with 15 μM etoposide plus 20 mM nicotinamide, a known PARP inhibitor. Cell death (apoptosis and necrosis) was confirmed by acridine orange and propidium iodide staining. The cells were washed 3 times with RPMI 1640 growth medium containing 10% FCS at 37° C. and to 2 ml of the etoposide- and etoposide/nicotinamide treated EL4 cell suspension 2 ml of the imaging medium according to Example 2 were added. The final cell suspension thus contained 30 mM hyperpolarised ^13C1-pyruvate and 37.5 mM lactate.

[2] = tested on: EL-4 murine lymphoma cells; assay: 31P-NMR measurements on acid-extracts of EL-4 cells induced to undergo cell death
Excerpt: Loss of NAD(H) can be explained by DNA-damage induced activation of the enzyme poly-ADP-ribose polymerase (PARP), which polyadenylates various proteins and uses NAD^+ as a substrate. There was also an increase in the resonances from the glycolytic intermediate, fructose-1,6-bisphosphate (FBP), which can be explained by inhibition of the glycolytic enzyme, glyceraldehyde 3-phosphate dehydrogenase (GAPDH), through loss of its coenzyme NAD(H). Inhibition of PARP activity with a competitive inhibitor (20 mM nicotinamide) or 3-aminobenzamide (10 mM) inhibited the loss of NAD(H) and the increase in FBP concentration observed in apoptotic cells.

[3] = tested on: EL4 murine lymphoma cells; assay: 13C-MR spectroscopy of hyperpolarised 13C-label flux between pyruvate and lactate in EL4 cells; settings: cells treated with both the PARP inhibitor and etoposide
Protocol: as §1
^13C-signal intensities from ^13C-pyruvate and ^13C-lactate in etoposide-treated EL4 cell suspensions as described in 3.1 were followed over a time period of 240 seconds from the time of addition of the imaging medium. […]
^13C-signal intensities from ^13C-pyruvate and ^13C-lactate in etoposide-treated and etoposide/nicotinamide treated EL4 cell suspensions as described in 3.1 were followed over a time period of 240 seconds from the time of addition of the imaging medium. […] The data were fit to a two-site exchange model based on the modified Bloch equations, and the rate constants for the forward and reverse exchange ^13C-fluxes were determined. […]

[4] = etoposide-treated cells compared to untreated control cells

COc1cc([C@@H]2c3cc4c(cc3[C@@H](O[C@@H]3O[C@@H]5CO[C@@H](C)O[C@H]5[C@H](O)[C@H]3O)[C@H]3COC(=O)[C@H]23)OCO4)cc(OC)c1O [etoposide]
cell death (apoptosis and necrosis) ([1]; 15 μM etoposide, 16 h exposure): confirmed | intensity of the resonances from NAD(H) [2, 4]: decrease | resonances from fructose-1,6-bisphosphate (FBP) [2, 4]: increase

NC(=O)c1cccnc1 [nicotinamide]
ability to transfer the hyperpolarised 13C-label between the pyruvate and lactate pools [3]: maintained | morphological features of dying cells [1]: still exhibiting the common morphological features of dying cells | increase in FBP concentration observed in apoptotic cells ([2]; 20 mM nicotinamide): inhibited | loss of NAD(H) observed in apoptotic cells ([2]; 20 mM nicotinamide): inhibited

NC(=O)c1cccc(N)c1 [3-aminobenzamide]
ability to transfer the hyperpolarised 13C-label between the pyruvate and lactate pools [3]: maintained | morphological features of dying cells [1]: still exhibiting the common morphological features of dying cells | increase in FBP concentration observed in apoptotic cells ([2]; 3-aminobenzamide 10 mM): inhibited | loss of NAD(H) observed in apoptotic cells ([2]; 3-aminobenzamide 10 mM): inhibited
